Here are results for 16 compounds from PubChem BioAssay (NCI).

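Cultured in 96-well plates, cells were exposed to test compound for 48 hours across five concentrations. Definition used: TGI = concentration required for complete inhibition of growth.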

Some test systems named below: SR leukemia; HCT-116 colon; OVCAR-5 ovarian; SNB-75 CNS; SF-295 CNS; 786-0 renal; COLO 205 colon; HOP-92 NSCLC; SW-620 colon; PC-3 prostate.
Common to all, as to assay: NCI anticancer screen, dose series, 48 h

Consider `O=C([O-])c1ccccc1Nc1ccccc1C(=O)[O-].[OH3+].[Zn+2]`, for which the TGI in the experiment with SR leukemia was above 63.7 µM; with HCT-116 colon, above 78.2 µM; in the experiment on OVCAR-5 ovarian, above 100 µM; in the experiment with SNB-75 CNS it was 37.2 µM; in the experiment with SF-295 CNS, 32.2 µM; in the experiment with 786-0 renal, 57.7 µM. The TGI is above 75.3 µM with COLO 205 colon, 45.7 µM in the experiment with HOP-92 NSCLC and above 54.8 µM in the experiment on SW-620 colon.
As to `[N-]=[N+]=C1C(=O)C2CC3CC1CC2C3` (centres undefined), the TGI in the experiment on SR leukemia, with HCT-116 colon, with OVCAR-5 ovarian, in the experiment on SNB-75 CNS, with SF-295 CNS and in the experiment with 786-0 renal was above 100 µM each time. The TGI in the experiment with COLO 205 colon, in the experiment with HOP-92 NSCLC and with SW-620 colon was above 100 µM throughout.
On to `COC1CC(O[C@H]2CC[C@@]3(C)C(=CCC4(O)C3CCC35C(=O)OC6(C)O[C@@]43CCC65)C2)OC(C)C1O` (some centres undefined), for which the TGI in the experiment on SR leukemia, in the experiment with HCT-116 colon, in the experiment with OVCAR-5 ovarian, with SNB-75 CNS, in the experiment on SF-295 CNS and in the experiment on 786-0 renal was above 100 µM in each case. In the experiment on COLO 205 colon, this compound returned a TGI above 100 µM.
For `CO/S(=N/S(=O)(=O)c1ccccc1)c1ccccc1[N+](=O)[O-]` (centres undefined), the TGI with SR leukemia, in the experiment with OVCAR-5 ovarian, in the experiment on SNB-75 CNS, with SF-295 CNS, in the experiment with 786-0 renal and with COLO 205 colon was above 100 µM each time. The same compound displayed a TGI in the experiment on SW-620 colon above 100 µM.
Consider `CC(=O)OCCCCn1nncc1Cn1ccc(=O)n(Cc2cnnn2CCCCOC(C)=O)c1=O`, for which the TGI in the experiment on HCT-116 colon, in the experiment on OVCAR-5 ovarian, in the experiment with SNB-75 CNS, in the experiment on SF-295 CNS, in the experiment on 786-0 renal and in the experiment on COLO 205 colon was above 100 µM each time. Besides, the TGI in the experiment on HOP-92 NSCLC, in the experiment with PC-3 prostate and in the experiment with SW-620 colon was above 100 µM throughout.
With `CC(C)(C)c1ccc(NS(=O)(=O)c2ccc(N)cc2)cc1`, the TGI with HCT-116 colon stood at 34.7 µM; with OVCAR-5 ovarian, 84.3 µM; with SNB-75 CNS, 92.7 µM; with SF-295 CNS it was 14 µM; in the experiment on 786-0 renal, 52.1 µM; in the experiment on COLO 205 colon it was 29.6 µM. For the same compound, the TGI is 85.7 µM with PC-3 prostate and 69 µM with SW-620 colon.
Regarding `O=CC1=CCCN(CCc2c[nH]c3ccccc23)C1`, the TGI in the experiment with SR leukemia is above 393 µM; with HCT-116 colon, 80.4 µM; in the experiment with OVCAR-5 ovarian, 126 µM; in the experiment on SF-295 CNS, 112 µM; with 786-0 renal it was 117 µM; with COLO 205 colon, 149 µM. Also, the values for the TGI with HOP-92 NSCLC and in the experiment on SW-620 colon were 121 µM and 89.9 µM, respectively.
Regarding `C1=C2C3=[N+](CCCC3)CC2Cc2sccc21` (centres undefined), the TGI in the experiment with HCT-116 colon, in the experiment on OVCAR-5 ovarian, in the experiment with SNB-75 CNS, in the experiment on SF-295 CNS, with 786-0 renal and with COLO 205 colon was above 100 µM throughout. Besides, the TGI with HOP-92 NSCLC, with PC-3 prostate and in the experiment on SW-620 colon was above 100 µM each time.
With `Cc1ccc(N2C=Nn3c(nc4sc5c(c4c3=O)CCCC5)C2)cc1`, the TGI in the experiment on HCT-116 colon, with OVCAR-5 ovarian, with SNB-75 CNS, with SF-295 CNS, in the experiment on 786-0 renal and in the experiment with COLO 205 colon was above 100 µM each time. Besides, the TGI with HOP-92 NSCLC, with PC-3 prostate and in the experiment on SW-620 colon was above 100 µM in each case.
For the compound `O=C(O)CN1CCN2CCCCCCCCN(CC1)CCN(CC(=O)O)CC2`, the TGI in the experiment on HCT-116 colon, in the experiment on OVCAR-5 ovarian, with SNB-75 CNS, in the experiment with SF-295 CNS, with 786-0 renal and in the experiment with COLO 205 colon was above 100 µM each time. Also, the TGI in the experiment on HOP-92 NSCLC, in the experiment on PC-3 prostate and in the experiment with SW-620 colon was above 100 µM each time.
`O=c1c2ccccc2ncn1COCc1ccccc1`: the TGI in the experiment on SR leukemia, in the experiment on HCT-116 colon, with OVCAR-5 ovarian, in the experiment with SF-295 CNS, in the experiment on 786-0 renal and with COLO 205 colon was above 100 µM throughout. The TGI with HOP-92 NSCLC and in the experiment with SW-620 colon was above 100 µM each time.
Consider `CSc1nc2nccnc2c(=O)[nH]1`, for which the TGI with SR leukemia, in the experiment on HCT-116 colon, in the experiment with OVCAR-5 ovarian, with SNB-75 CNS, in the experiment on SF-295 CNS and in the experiment on 786-0 renal was above 100 µM in each case. In addition, the TGI in the experiment on COLO 205 colon, with HOP-92 NSCLC and in the experiment with SW-620 colon was above 100 µM throughout.
As for `CC1(C)CC[C@]2(C)[C@@H](O)C[C@]3(C)C(=CC[C@@H]4[C@@]5(C)CC[C@H](O)C(C)(C)[C@@H]5CC[C@]43C)[C@@H]2C1`, the TGI in the experiment on HCT-116 colon was above 100 µM; in the experiment on OVCAR-5 ovarian, above 100 µM; in the experiment on SF-295 CNS it was above 100 µM; in the experiment with 786-0 renal, above 100 µM; with COLO 205 colon it was above 100 µM; in the experiment with HOP-92 NSCLC it was 42.3 µM. Further, the TGI in the experiment on PC-3 prostate and in the experiment with SW-620 colon was above 100 µM each time.
As for `CC1=C(C(=O)O)N2C(=O)[C@@H](NC(=O)C(c3ccccc3)N3CSC(=S)N(C(C)C)C3)C2SC1` (some centres undefined), the TGI in the experiment with HCT-116 colon, with OVCAR-5 ovarian, in the experiment on SNB-75 CNS, in the experiment on SF-295 CNS, in the experiment on 786-0 renal and in the experiment with COLO 205 colon was above 100 µM throughout. In the experiment on HOP-92 NSCLC, this compound came in with a TGI above 100 µM.
In the case of `COc1nc2c(c(=O)[nH]1)N=C(c1ccccc1)CC(c1ccccc1)N2` (centres undefined), the TGI was above 100 µM with HCT-116 colon; above 100 µM in the experiment on OVCAR-5 ovarian; 52.5 µM in the experiment with SNB-75 CNS; above 100 µM in the experiment on SF-295 CNS; above 100 µM in the experiment on 786-0 renal; above 100 µM with COLO 205 colon. The TGI in the experiment on HOP-92 NSCLC, in the experiment on PC-3 prostate and in the experiment on SW-620 colon was above 100 µM in each case.
Take `COc1ccc(/C(=N/OCCCC(=O)O)c2cccs2)cc1`: the TGI with HCT-116 colon, with OVCAR-5 ovarian, with SNB-75 CNS, in the experiment on SF-295 CNS, in the experiment with 786-0 renal and in the experiment on COLO 205 colon was above 100 µM each time. For the same compound, the TGI with HOP-92 NSCLC, in the experiment with PC-3 prostate and in the experiment on SW-620 colon was above 100 µM in each case.
